Source: patent US20140357713A1, “ANTIMICROBIAL COMPOUNDS AND METHODS OF USE” (NexMed Holdings, Inc., priority 2012, published 2014)
Converted amounts (≈) assume the structure as drawn. Like-named read-outs stand apart in the source and are kept apart here.

Experiments:
[1] = tested on: Candida albicans (ATCC 90029); test: Minimum inhibitory concentration (MIC) assay, Example 33; type: cell-based; conditions: for MIC: Table 19 summary
Method: (§1) Thirty compounds were tested for antimicrobial activity using standard procedures and standard strains for both the minimum inhibitory concentration (MIC) assay and a time kill study. Both the MIC assay and the time kill study were performed according to Clinical and Laboratory Standards Institute (CLSI) guidelines. Three bacteria strains, Escherichia coli (ATCC 25922), Pseudomonas aeruginosa (ATCC 27853), Staphulococcus aureus (ATCC 29213), and two fungus strains, Candida albicans (ATCC 90029) and Aspergillus niger (CMCC 98003), were used in the experiments.
(§2) Preparation of cultures. Before the experiment, two days for the bacteria strains and five days for fungus strains, an aliquot was removed from the cultures frozen at −80° C. Medium was added to the surface of an appropriate agar plate and streaked with the aliquot. The plate was incubated for 20 to 24 hrs at 35±2° C. for bacteria or for 5 days at 26-30° C. in incubator for fungus. From the resulting growth on each plate, one isolated colony of similar morphology was selected and re-streaked onto a fresh agar plate using a sterile disposable loop. The plate was incubated 20 to 24 hrs at 35±2° C. or for 5 days at 26-30° C. in an incubator.
(§3) Preparation of Assay Plates with Medium and Drugs. On the day of the assay, CAMHB medium or RPMI 1640 medium was removed from 4′C storage and allowed to reach room temperature. Ninety microliters (μL) of room temperature CAMHB or RPMI 1640 (supplemented with the appropriate concentration of DMSO, if required) were added to rows B-G of each 96-well microtiter plate. Using a pipette, duplicate 180 μL aliquots of each drug stock solution were added to column 1 (e.g. A1 and B1 or C1 and D1 or E1 and F1 or G1 and H1). Using a multichannel pipette or the Provision 2000 liquid handler, serial 2-fold dilutions (90 μL) were performed in each row across the plate to row G. Eighty μL of compounds dilutions were transferred to a 96-deep well plate. Medium, 1,520 μL of CAMHB or RPMI 1640, was added to each well. The contents of the wells were mixed thoroughly. A 50 μL aliquot of each of the resulting mixtures was transferred to a 96-well assay plate.
For Candida albicans, a sterile inoculating loop was used to transfer growth from an agar plate culture into a tube with RPMI1640 medium. This inoculum was adjusted so that its density at 530 nm was in the ranges from 0.08 to 0.13. The resulting suspension was diluted 1:50 and further diluted 1:20 with the medium to obtain two times test inoculums.
(§4) For Aspergillus niger, sporulating colonies were covered with RPMI 1640, and a suspension was prepared by gently probing the colonies with the tip of a transfer pipette. The suspension was transferred to a sterile tube and mixed with a vortex mixer for 15 seconds. The densities at 530 nm were adjusted to 0.09-0.13 for each sample. The resulting suspension was diluted 1:50 with the medium to obtain two times test inoculums. Fifty μL/well of this inoculum suspension was added to wells of drug-containing plates (1:2 dilution). Plates were incubated at 35° C. for the appropriate times. The MIC was read and recorded according to CLSI guidelines.
(§5) The MIC values for thirty compounds against Escherichia coli, Pseudomonas aeruginosa, Staphulococcus aureus, Candida albicans, and Aspergillus niger were recorded and are presented in Table 3 and Table 4.

[2] = tested on: Aspergillus niger (CMCC 98003); test: as above; type: cell-based; conditions: for MIC: Table 19 summary
Method: as §1, §2, §3, §4, §5

pH (Table 1) = type: physicochemical
[3] = tested on: Escherichia coli (ATCC 25922); test: Minimum inhibitory concentration (MIC) assay, Example 33; type: cell-based
Method: as §1, §2, §3
(§6) For bacteria, a sterile inoculating loop was used to transfer growth from an agar plate culture into about 5 mL of test medium. Using a turbidity meter, this inoculum was adjusted so that its density (600 nm) was equivalent to a 0.5 McFarland barium sulfate standard (0.08-0.13). The resulting suspension was diluted 1:100 into medium to obtain two times test inoculums.
as §4, §5

[4] = tested on: Pseudomonas aeruginosa (ATCC 27853); test: as above; type: cell-based
Method: as §1, §2, §3, §6, §4, §5

[5] = tested on: Staphulococcus aureus (ATCC 29213); test: as above; type: cell-based, Staphylococcus aureus
Method: as §1, §2, §3, §6, §4, §5

[6] = tested on: Escherichia coli (ATCC 25922); test: Time kill study, Example 33 (0 to 5 min); type: cell-based; conditions: 1×MIC
Method: as §1
(§7) The viable counts in Log10 CFU/mL at each time point were recorded.
(§8) Time kill studies. Strain suspensions were prepared as described above for the MIC test, and strain suspensions and compound solutions were mixed in the same volume. Samples were removed at specified times including 0 min, 30 sec, 1 min and 5 mins, were diluted in the test medium and streaked on agar. Colonies were counted after 24 to 48 hrs of incubation. […]

[7] = tested on: Pseudomonas aeruginosa (ATCC 27853); test: Time kill study, Example 33 (0 to 5 min); type: cell-based; conditions: 1×MIC
Method: as §1, §7, §8

[8] = tested on: Staphylococcus aureus (ATCC 29213); test: Time kill study, Example 33 (0 to 5 min); type: cell-based; conditions: 1×MIC
Method: as §1, §7, §8

[9] = Table 19 summary of Example 33 and Example 35

Structure (SMILES)	MIC Candida albicans ([1]; n = 1) [µg/mL]	MIC Candida albicans ([1]; n = 2) [µg/mL]	MIC Aspergillus niger ([2]; n = 1) [µg/mL]	MIC Aspergillus niger ([2]; n = 2) [µg/mL]	pH (pH (Table 1))	MIC [3, 9] [µg/mL]	MIC E. coli ([3]; n = 1) [µg/mL]	MIC E. coli ([3]; n = 2) [µg/mL]	MIC ([4]; Table 19 summary) [µg/mL]	MIC P. aeruginosa ([4]; n = 1) [µg/mL]	MIC P. aeruginosa ([4]; n = 2) [µg/mL]	MIC ([5]; Table 19 summary) [µg/mL]	MIC S. aureus ([5]; n = 1) [µg/mL]	MIC S. aureus ([5]; n = 2) [µg/mL]	MIC [1] [µg/mL]	MIC [2] [µg/mL]	Viable counts, Escherichia coli time kill study ([6]; 0.5 min) [Log10 CFU/mL]	Viable counts, Escherichia coli time kill study ([6]; 1 min) [Log10 CFU/mL]	Viable counts, Escherichia coli time kill study ([6]; 5 min) [Log10 CFU/mL]	Viable counts, Escherichia coli time kill study ([6]; time 0) [Log10 CFU/mL]	also measured
C[C@@H]1[C@H](O)[C@@H](C)/C=C/C=C/C=C/C=C/C=C/C=C/C=C/[C@H](O[C@@H]2O[C@H](C)[C@@H](O)[C@H](N)[C@@H]2O)C[C@@H]2O[C@](O)(C[C@@H](O)C[C@@H](O)[C@H](O)CC[C@@H](O)C[C@@H](O)CC(=O)O[C@H]1C)C[C@H](O)[C@H]2C(=O)O [Amphotericin B, reference compound]	0.5 (≈ 0.541 µM)	0.5 (≈ 0.541 µM)	2000 (≈ 2160 µM)	2000 (≈ 2160 µM)	–	–	–	–	–	–	–	–	–	–	–	–	–	–	–	–	–
CCCCCCCCCCCCOC(=O)[C@H](C)N(C)C.Cl [Nex-57, L-Dodecyl 2-(dimethylamino)propanoate hydrochloride]	>12500	>12500	>12500	>12500	1.57	3130	3130	3130	6250	6250	6250	3130	3130	3130	>12500	>12500	<4.0	<3.70	<3.52	5.78	Viable counts, Pseudomonas aeruginosa time kill study ([7]; 0.5 min): <4.0 Log10 CFU/mL; Viable counts, Pseudomonas aeruginosa time kill study ([7]; 1 min): <3.70 Log10 CFU/mL; Viable counts, Pseudomonas aeruginosa time kill study ([7]; 5 min): <3.52 Log10 CFU/mL; Viable counts, Pseudomonas aeruginosa time kill study ([7]; time 0): 5.45 Log10 CFU/mL; Viable counts, Staphylococcus aureus time kill study ([8]; 0.5 min): 6.17 Log10 CFU/mL; Viable counts, Staphylococcus aureus time kill study ([8]; 1 min): 6.19 Log10 CFU/mL; Viable counts, Staphylococcus aureus time kill study ([8]; 5 min): 5.92 Log10 CFU/mL; Viable counts, Staphylococcus aureus time kill study ([8]; time 0): 6.29 Log10 CFU/mL
CCCCCCCCCCCCOC(=O)C(C)N(C)C.CCCCCCCCCCCCOC(=O)C(C)N(C)C.O=S(=O)(O)c1cccc2c(S(=O)(=O)O)cccc12 (stereo not drawn) [Nex-32, Dodecyl 2-(dimethylamino)propanoate heminaphthalene-1,5-disulfonate]	>12500	>12500	>12500	>12500	3.87	3130	3130	3130	6250	6250	6250	1560	1560	1560	>12500	>12500	5.77	4.7	<3.52	6.05	Viable counts, Pseudomonas aeruginosa time kill study ([7]; 0.5 min): 5.62 Log10 CFU/mL; Viable counts, Pseudomonas aeruginosa time kill study ([7]; 1 min): 4.48 Log10 CFU/mL; Viable counts, Pseudomonas aeruginosa time kill study ([7]; 5 min): 4.12 Log10 CFU/mL; Viable counts, Pseudomonas aeruginosa time kill study ([7]; time 0): 5.73 Log10 CFU/mL; Viable counts, Staphylococcus aureus time kill study ([8]; 0.5 min): 6.31 Log10 CFU/mL; Viable counts, Staphylococcus aureus time kill study ([8]; 1 min): 6.23 Log10 CFU/mL; Viable counts, Staphylococcus aureus time kill study ([8]; 5 min): 6.2 Log10 CFU/mL; Viable counts, Staphylococcus aureus time kill study ([8]; time 0): 6.25 Log10 CFU/mL
CC(C)(O/N=C(\C(=O)N[C@@H]1C(=O)N2C(C(=O)[O-])=C(C[n+]3ccccc3)CS[C@H]12)c1csc(N)n1)C(=O)O [Ceftazidime, reference compound]	–	–	–	–	–	–	–	–	–	–	–	–	–	–	–	–	–	–	–	–	MIC ([3]; Escherichia coli, ATCC25922, n = 1, read-out: MIC E. coli): 0.5 µg/mL (≈ 0.915 µM); MIC ([3]; Escherichia coli, ATCC25922, n = 2, read-out: MIC E. coli): 0.5 µg/mL (≈ 0.915 µM); MIC ([4]; Pseudomonas aeruginosa, ATCC27853, n = 1, read-out: MIC P. aeruginosa): 2 µg/mL (≈ 3.66 µM); MIC ([4]; Pseudomonas aeruginosa, ATCC27853, n = 2, read-out: MIC P. aeruginosa): 2 µg/mL (≈ 3.66 µM); MIC ([5]; Staphylococcus aureus, ATCC29213, n = 1, read-out: MIC S. aureus): 8 µg/mL (≈ 14.6 µM); MIC ([5]; Staphylococcus aureus, ATCC29213, n = 2, read-out: MIC S. aureus): 16 µg/mL (≈ 29.3 µM)
